Reference: ChEMBL document CHEMBL1157539, “Thousands of chemical starting points for antimalarial lead identification” (Nature, 2010)

Tested on: Plasmodium falciparum
Assay: GSK_TCMDC: Inhibition of Plasmodium falciparum 3D7 in whole erythrocytes, using parasite LDH activity as an index of growth.
Type: functional, organism-based

Row | Structure (SMILES) | XC50 (Plasmodium falciparum, 3D7) [nM] | XC50 [nM]
1 | Cc1[nH]c2ccc(-c3ccc(N(C)C)cc3)cc2c(=O)c1Cl | 720 | 
2 | CCN(CC)CCN(Cc1ccc(-c2ccc(C(F)(F)F)cc2)cc1)C(=O)Cn1cc(Cc2cnn(C)c2)c(=O)nc1/C=C/c1ccc(F)cc1 | 1060 | 
3 | Cc1ccccc1C1CCN(C2CCC(NC(=O)/C=C/c3cccc(F)c3)CC2)CC1 (stereo not given) | 1190 | 
4 | Cc1cc(N[C@@H](Cc2ccccc2)C(=O)NCc2cccc(F)c2)nc(Nc2ccccc2)n1 | 930 | 
5 | COc1ccc(S(=O)(=O)NC2CCN(CCNC(=O)Nc3cc(C)nc4ccccc34)C2)cc1 (stereo not given) | 1190 | 
6 | C[C@@H](COc1ccccc1)NCC(O)c1ccc([N+](=O)[O-])c(OCc2ccccc2)c1 (stereo not given in full) | 994 | 
7 | CC1CN(Cc2ccc(-c3ccc(-c4nc5ccccc5[nH]4)cc3)cc2)CC(C)O1 (stereo not given) | 523 | 
8 | CC(C)C[C@H](NC(=O)OC(C)(C)C)C(=O)Nc1ccc(Cc2ccc(NC(=O)[C@H](CC(C)C)NC(=O)OC(C)(C)C)cc2)cc1 | 761 | 
9 | Cc1ccc(-n2c(Cc3cccc4ccccc34)nnc2SCCC#N)c(C)c1 | 465 | 
10 | Cc1nnc(Sc2ncnc3scc(-c4ccc(F)cc4)c23)s1 | 811 | 
11 | O=C(/C=C/c1ccc(Cl)cc1Cl)NC1CCC(CN2CCC(c3c[nH]c4ccccc34)CC2)CC1 (stereo not given) | 798 | 
12 | COc1cc(NC(=O)C(c2ccc(Cl)cc2)C(C)C)cc(OC)c1 (stereo not given) | 723 | 
13 | O=C(NC1CC1)c1ccc(N2CCOc3ccc(Cl)cc32)s1 | 803 | 
14 | CCOC(=O)c1c(C)n(-c2ccccc2)c2ccc(OC(=O)COc3ccc(Cl)cc3Cl)cc12 | 429 | 
15 | CN(C)S(=O)(=O)c1ccc(C(=O)N(c2nc(-c3ccccc3)cs2)C2CCCCC2)cc1 | 760 | 
16 | CSc1ccc(NC(=O)Nc2cc(C)nc3ccccc23)cc1 | 713 | 
17 | CCCCCC(C)N/C(=N/c1cccc(Cl)c1Cl)Nc1ccc(C#N)cc1O (stereo not given) | 805 | 
18 | COc1cc2c(cc1OC)-c1cc(=Nc3c(C)cc(C)cc3C)n(C)c(=O)n1CC2 | 1110 | 
19 | COc1ccccc1Cn1ccnc1SCC(=O)Nc1cccc(C(F)(F)F)c1 | 907 | 
20 | Cc1cccc2nc(-c3cccc(-c4ccc(NC(=O)CS(C)(=O)=O)cc4)c3)[nH]c12 | 1000 | 
21 | Cc1ccc(Oc2ccccc2NC(=O)CCc2nc3ccccc3c(=O)[nH]2)cc1 | 827 | 
22 | O=C(NCc1ccc(F)cc1)c1ccc(N2CCN(c3ccncc3)CC2)cn1 | 886 | 
23 | COc1ccc(NC(=O)[C@H](CC(C)C)Nc2cc(C)nc(NCCc3ccccc3)n2)cc1 | 888 | 
24 | Cc1ccc(C(=O)Nc2cc(C(F)(F)F)cc(C(F)(F)F)c2)cc1[N+](=O)[O-] | 927 | 
25 | CCCCCCCCNCCCSCCCNCCCCCCCC | 1230 | 

Row | Structure (SMILES) | XC50 (Plasmodium falciparum, 3D7) [nM] | XC50 [nM]
26 | CC(C)(CNC(=O)C1CCN(CCOc2ccc(F)c(F)c2)CC1)c1nc(-c2ccc(Cl)c(O)c2)c(-c2ccncc2)[nH]1 | 316 | 
27 | O=C(Nc1ccccc1)Nc1cccc(-c2cccc(-c3nc4cc(F)ccc4[nH]3)c2)c1 | 176 | 
28 | CC1(C)N=C(N)N=C(N)C1c1ccc(Cl)cc1 (stereo not given) | 259 | 
29 | CC1(C)NC(N)=NC(=N)N1OCCc1ccc(N)cc1 | 3.2 | 
30 | COc1cccc(OC)c1-c1ccccc1NC(=O)N1CCCc2cc(C)ccc21 | 823 | 
31 | COc1ccccc1CNCC(O)c1cc(C(F)(F)F)ccc1C(F)(F)F (stereo not given) | 944 | 
32 | CCC(=O)Nc1ccc(Nc2nc(C)cc(N3CCCC3)n2)cc1 | 1320 | 
33 | CN1CCN(CCCN(Cc2cccc(-c3ccc(CNCc4ccc5c(c4)OCO5)cc3)c2)C(=O)CCC2CCCC2)CC1 | 1000 | 
34 | CC(=O)N(C)C1CCN(Cc2ccc(-c3ccc(-c4nc5cc(F)ccc5[nH]4)s3)cc2)C1 (stereo not given) | 971 | 
35 | CNC(=O)c1nc(-c2ccccc2)[nH]c1NC(C)=O | 152 | 
36 | O=C(NC1CCCCCC1)C1CCCN(C(=O)c2ccc(O)c(-c3ccc(Cl)c(Cl)c3)c2)C1 (stereo not given) | 763 | 
37 | O=C(NCCCCN1CCCC2c3ccc(O)cc3CCC21)c1ccc(-c2ccccc2)cc1 (stereo not given) | 732 | 945
38 | O=C(Nc1ccsc1)Nc1cccc(-c2cccc(-c3nc4cc(C(F)(F)F)ccc4[nH]3)c2)c1 | 150 | 
39 | COCCNCc1ccc(-c2ccc(CN(C(=O)NC3CCCCC3)C3CCN(Cc4ccccc4)CC3)cc2)cc1 | 960 | 
40 | Cc1nnc2c(NC(=O)NC(C)C)cc3cc(-c4ccc(CN5CCCCC5)cc4)ccc3n12 | 1180 | 
41 | O=C(Nc1ccc(-n2ccc(C(F)(F)F)n2)cc1)c1cccs1 | 1070 | 
42 | CCN(CC)C(=O)C1CCCN(c2cc(C)nc(Nc3ccc(Cl)cc3)n2)C1 (stereo not given) | 718 | 
43 | Nc1nc(N)c2c(Cl)c(N3CCOCC3)ccc2n1 | 76.9 | 
44 | COc1ccc2cc(CNCCCCCCNCc3ccc4cc(OC)ccc4c3)ccc2c1 | 624 | 
45 | CCCCCCCCN1CCCN(C(=O)c2cccc(NC(=O)Nc3ccc4ccccc4c3)c2)CC1 | 762 | 
46 | Cc1cccc2c(CON3C(N)=NC(N)=NC3(C)C)cccc12 | 3.2 | 
47 | O=C(NCc1ccco1)c1ccc(CN2CCN(C(c3ccccc3)c3ccccc3)CC2)cc1 | 789 | 
48 | CCNc1cc(C(=O)N[C@@H](Cc2ccccc2)[C@H](O)CNCc2cc(C#N)ccc2OC)cc(N2CCCC2=O)c1 | 1230 | 
49 | c1cncc(CN2CCN(Cc3ccc(-c4ccc(-c5nc6ccccc6[nH]5)s4)cc3)CC2)c1 | 938 | 
50 | COc1ccc2nccc([C@@H](O)CN3CCC(NCc4cc5oc(=O)n(C)c5cc4F)CC3)c2c1 | 661 | 

Row | Structure (SMILES) | XC50 (Plasmodium falciparum, 3D7) [nM] | XC50 [nM]
51 | COc1cccc(CNC(=O)c2ccnc(-c3cccc(CN(C)C4CCN(C)CC4)c3)c2)c1 | 834 | 
52 | CCn1cnc2c(N3CCCC3=O)cc(C(=O)N[C@@H](Cc3ccccc3)[C@H](O)CNC3CCCCC3)cc21 | 574 | 
53 | c1cc(CNCCc2ccncc2)cc(-c2ccc(-c3nc4ccccc4[nH]3)s2)c1 | 336 | 
54 | COc1cccc(CNC[C@@H](O)[C@H](Cc2ccccc2)NC(=O)c2cc(C3CCCC3)cc(N3CCCCS3(=O)=O)c2)c1 | 599 | 
55 | COc1ccc(-c2nc3cccnc3n2CC(=O)Nc2c(C)cc(C)cc2C)c(OC)c1 | 927 | 
56 | Cc1[nH]c(C)c(-c2ccc(-c3ccc(OC(F)(F)F)cc3)cc2)c(=O)c1Br | 38.6 | 
57 | CC(=O)Nc1ccc(CN2CCCN(c3cc(NC(=O)c4cccc(C)c4)ccn3)CC2)cc1 | 863 | 
58 | Cc1ccc(C2=NNC3(S2)C(=O)Nc2ccc(C)cc23)cc1 (stereo not given) | 1020 | 
59 | CC(Cc1ccc(OCCOc2ccccc2)cc1)NCC(O)c1cccc(Cl)c1 (stereo not given) | 1040 | 
60 | O=C(NC1CC1)c1ccc2cc(C(=O)N3Cc4ccccc4C(c4ccccc4)C3)ccc2c1 (stereo not given) | 910 | 
61 | CCCCCc1cc(O)c2c(c1)OC(C)(C)CC2C1=CCN(Cc2ccccc2)CC1 (stereo not given) | 767 | 
62 | CCCc1cc(=O)oc2cc(OC)c(C(=O)CC(C)C)c(OC)c12 | 1010 | 
63 | COc1ccc2nccc([C@@H](O)CN3CCC(NCc4nc5c(cc4Cl)OCC(=O)N5)C(F)C3)c2c1 (stereo not given in full) | 1320 | 
64 | O=C(NCC1CC1)C1CCN(C(c2ccccc2)c2cc(F)cc(F)c2)CC1 (stereo not given) | 380 | 
65 | CCN(CC)CCCCOc1ccc2c(c1)C(=O)c1cc(OCCCCN(CC)CC)ccc1-2 | 759 | 
66 | OC(CNC1CCCCCC1)c1ccc(Cl)c(Cl)c1 (stereo not given) | 688 | 
67 | CC(=O)Nc1cccc(C(=O)Nc2nc3ccc(-c4cc(=O)[nH]c(Nc5ccccc5Cl)n4)cc3[nH]2)c1 | 689 | 
68 | COc1ccc(CNC2CCN(C)CC2)cc1-c1ccc(S(=O)(=O)NCc2ccccc2)c(F)c1 | 800 | 
69 | CC(=O)N[C@H](C(=O)Nc1ccc(-c2ccc(-c3nc4cc(C(F)(F)F)ccc4[nH]3)cc2)cc1)C(C)C | 889 | 
70 | COc1cc2c(cc1OC)CC(NCc1ccc(-c3ccc4nc[nH]c4c3)cc1)C2 | 846 | 
71 | CCCCCC(C)C(C)c1cc(O)c2c(c1)OC(C)(C)CC2c1cc[n+]([O-])cc1 (stereo not given) | 499 | 
72 | COc1cc(OC)nc(C(Sc2ccc(NC(=O)c3cccs3)cc2)c2ccccc2)n1 (stereo not given) | 57.5 | 
73 | CCc1nc2c(cnn2CC)c(NC2CCOCC2)c1CNC(=O)c1ccoc1C | 886 | 
74 | CO[C@@H]1C[C@@H](C(=O)Nc2ccccc2)N(c2ccc(C#N)c3ccccc23)C1 | 907 | 
75 | CCOC(=O)c1ccc(NC(=O)N(Cc2ccc(-c3cccc(CN4CCNCC4)c3)cc2)C2CCN(Cc3ccccc3)CC2)cc1 | 748 | 

Row | Structure (SMILES) | XC50 (Plasmodium falciparum, 3D7) [nM] | XC50 [nM]
76 | COC(=O)C(Cc1ccccc1)C(CSCc1ccc(OC)cc1)C(=O)N[C@@H](C(=O)OC(C)(C)C)c1ccc(C(C)(C)C)cc1 (stereo not given in full) | 1030 | 
77 | FC(F)(F)c1cccnc1N1CCC(Nc2nc3cc(Cl)ccc3[nH]2)CC1 | 646 | 
78 | CCOc1ccc2c(=NN=Cc3cccc(OC)c3)cc(C)[nH]c2c1 | 123 | 
79 | Cc1ccc(-n2cc(CNCCCn3ccnc3)c(-c3cccc(C)c3)n2)cc1 | 773 | 
80 | Cc1nc2nc(N)nc(N)c2c(C)c1Cc1ccccc1I | 351 | 
81 | O=C(Nc1ccc(Cl)cc1)Nc1ccc2nonc2c1 | 1100 | 
82 | Cc1ccc(O)cc1Nc1ccnc2ccc(-c3cccc(CN(C)C)c3)cc12 | 515 | 
83 | COc1ccc(C(=O)COc2cccc(/C=C/C(=O)O)c2)cc1OC | 1320 | 
84 | CC(C)Cn1cc2c(ccc3nc(N)nc(N)c32)n1 | 303 | 
85 | Cc1ccc(Nc2nc3cc(Nc4ccnc(Nc5cccc(CS(C)(=O)=O)c5)n4)ccc3o2)cc1 | 923 | 
86 | O=C(Nc1cccc(C(F)(F)F)c1)Nc1ccc(F)c([N+](=O)[O-])c1 | 696 | 
87 | COc1ccc(CNc2nc(NCc3ccccc3)c3cc(OC)c(OC)cc3n2)cc1OC | 540 | 
88 | CCNc1cc(C)nc(Nc2ccc(NS(=O)(=O)c3ccccc3)cc2)n1 | 791 | 
89 | COc1ccccc1CNC(=O)c1cc(C2CC2)nc2c1cnn2C(C)C | 1020 | 
90 | COc1ccc([N+](=O)[O-])cc1N(Cc1ccccc1-c1ccccc1)S(=O)(=O)c1ccc(C(F)(F)F)cc1 | 784 | 
91 | CCN(CCNc1nc(NCCc2cnc[nH]2)nc(N(CCC#N)Cc2ccccc2)n1)c1cccc(C)c1 | 715 | 
92 | COC(=O)CCCCOc1cc(Cc2cnc(N)nc2N)cc(OC)c1OC | 173 | 
93 | O=[N+]([O-])c1cccc(NC(=S)N2CCCN(Cc3ccc(C(F)(F)F)cc3)CC2)c1 | 1200 | 
94 | Cc1cc(C(=O)Nc2ccc(OCc3ccccc3)cc2)on1 | 991 | 
95 | COc1cccc(-c2cc(-c3ccc(NC(=O)c4ccccc4)cc3)c3c(N)ncnc3n2)c1 | 587 | 
96 | CC(C)NC(C)(C)CN(Cc1ccc(-c2ccc(C(F)(F)F)cc2)cc1)C(=O)Cn1c(CCc2cccc(F)c2F)nc(=O)c2ccccc21 | 908 | 
97 | CC(Cc1ccc(S(=O)(=O)N(C(C)C)C(C)C)cc1)NCC(O)c1cccc(C(F)(F)F)c1 (stereo not given) | 685 | 
98 | CCOc1ccccc1NC(=O)Nc1ccc2c(c1)CCN(C1CCC1)CC2 | 1110 | 
99 | Clc1ccc2c(Cl)c(CNCCCNc3nc4ccccc4[nH]3)[nH]c2c1 | 219 | 
